# In patent US8921417B2, “Method of treating dyslipidemia using naturally occurring diterpene” (Council of Scientific & Industrial Research, priority 2008, dated 2014):
# Marks after values point to notes of the source that are not given here.
# System: high fat diet (HFD)-fed dyslipidemic hamsters
# Assay: Antidyslipidemic activity in high fat diet (HFD)-fed dyslipidemic hamster model
# Assay type: in vivo, golden Syrian hamsters
# Conditions: for GLY, percent change with respect to HFD-fed hamster group / HDL/TC, percent change with respect to HFD-fed hamster group / TC, percent change with respect to HFD-fed hamster group / TG, percent change with respect to HFD-fed hamster group / LDL, percent change with respect to HFD-fed hamster group: plasma; for antidyslipidemic activity (in words): different doses (5, 10, 25, 50, 100 mg/kg) of body weight
# Description: Male golden Syrian hamsters weighing 110-120 g were divided into hyperlipidemic and hyperlipidemic plus drug-treated groups. Each group consisted of eight animals. Hyperlipidemia was produced by feeding with a high fat diet (HFD). Hyperlipidemic hamsters had free access to the HFD and water ad lib during the entire period of the experiment. The test samples were given orally at the dose mentioned using water as a drug vehicle from day 4 to day 10 (7 days) in the HFD fed hamsters.
# Normal hamsters fed with the HFD and given the drug vehicle (water) only served as control animals. Body weight and diet intake of each animal group was recorded daily to check the effect of the drug on food intake and body weight of the animals. At the end of the experiment, i.e., on the 10th day, the blood of the non-fasted animals was withdrawn in EDTA coated tubes and the tubes were cooled to 4° C. for 15 min. The cold plasma was separated and biological analysis of the plasma was performed on the same day using commercially available enzymatic diagnostic kits for triglycerides (TG), total cholesterol (TC), high density lipoprotein (HDL), glycerol (GLY) and low density lipoprotein (LDL) using a Synchron CX-5 Clinical System, Beckmann Coulter Instrument. The data was analyzed for its significance on Prism Software.
# [1] = dose 25 mg/kg body weight, oral, 7 days
# [2] = dose 50 mg/kg body weight, oral, 7 days
# [3] = dose 100 mg/kg body weight, oral, 7 days
smiles,measurement,setting,value
"CC(C)c1c(C(=O)Nc2ccccc2)c(-c2ccccc2)c(-c2ccc(F)cc2)n1CC[C@@H](O)C[C@@H](O)CC(=O)O [Atorvastatin, reference compound]",increase of HDL/TC,dose 10 mg/kg,35%
same,lowering of Gly,dose 10 mg/kg,52%
same,lowering of TC,dose 10 mg/kg,14%
same,lowering of TG,dose 10 mg/kg,63%
same,"GLY, percent change with respect to HFD-fed hamster group","dose 10 mg/kg p.o., 7 days",−52* %
same,"HDL/TC, percent change with respect to HFD-fed hamster group","dose 10 mg/kg p.o., 7 days",+35%
same,"TC, percent change with respect to HFD-fed hamster group","dose 10 mg/kg p.o., 7 days",−14%
same,"TG, percent change with respect to HFD-fed hamster group","dose 10 mg/kg p.o., 7 days",−63*** %
"CC1=CCC[C@@H]2[C@@](C)(CCC3=CC(=O)O[C@@H]3O)[C@H](C)CC[C@@]12C [Compound 1, 16α-hydroxycleroda-3,13(14)Z-dien-15,16-olide]",antidyslipidemic activity (in words),listed as compound having formula (1),significant antidyslipidemic activity
same,antidyslipidemic activity (in words),listed as pure isolated compound from the hexane extract,"significantly decreased serum TG, total cholesterol (TC), and glycerol (Gly), accompanied by increase in HDL-C/TC ratio"
same,"GLY, percent change with respect to HFD-fed hamster group","dose 5 mg/kg p.o., 7 days",−10%
same,"HDL/TC, percent change with respect to HFD-fed hamster group","dose 5 mg/kg p.o., 7 days",+12%
same,"TC, percent change with respect to HFD-fed hamster group","dose 5 mg/kg p.o., 7 days",−27* %
same,"TG, percent change with respect to HFD-fed hamster group","dose 5 mg/kg p.o., 7 days",−19%
same,"GLY, percent change with respect to HFD-fed hamster group","dose 10 mg/kg p.o., 7 days",−5%
same,"HDL/TC, percent change with respect to HFD-fed hamster group","dose 10 mg/kg p.o., 7 days",+12%
same,"TC, percent change with respect to HFD-fed hamster group","dose 10 mg/kg p.o., 7 days",−23* %
same,"TG, percent change with respect to HFD-fed hamster group","dose 10 mg/kg p.o., 7 days",−26*** %
same,increase of HDL/TC,[1],36%
same,lowering of Low density lipoproteins (LDL),[1],49%
same,lowering of glycerol (Gly),[1],51%
same,lowering of total cholesterol (TC),[1],46%
same,lowering of serum TG,"dose 25 mg/kg body weight, oral, 7 days, listed as compound of formula (1), 25 mg/kg",51%
same,lowering of serum TG,"dose 25 mg/kg body weight, oral, 7 days, listed as the compound, 25 mg/kg",up to 51%
same,"GLY, percent change with respect to HFD-fed hamster group","dose 25 mg/kg p.o., 7 days",−51*** %
same,"HDL/TC, percent change with respect to HFD-fed hamster group","dose 25 mg/kg p.o., 7 days",+36%
same,"LDL, percent change with respect to HFD-fed hamster group","dose 25 mg/kg p.o., 7 days",−49* %
same,"TC, percent change with respect to HFD-fed hamster group","dose 25 mg/kg p.o., 7 days",−46** %
same,"TG, percent change with respect to HFD-fed hamster group","dose 25 mg/kg p.o., 7 days",−51*** %
same,increase of HDL/TC,[2],54%
same,lowering of Low density lipoproteins (LDL),[2],41%
same,lowering of glycerol (Gly),[2],48%
same,lowering of serum TG,[2],46%
same,lowering of total cholesterol (TC),[2],55%
same,"GLY, percent change with respect to HFD-fed hamster group","dose 50 mg/kg p.o., 7 days",−48** %
same,"HDL/TC, percent change with respect to HFD-fed hamster group","dose 50 mg/kg p.o., 7 days",+54%
same,"LDL, percent change with respect to HFD-fed hamster group","dose 50 mg/kg p.o., 7 days",−41* %
same,"TC, percent change with respect to HFD-fed hamster group","dose 50 mg/kg p.o., 7 days",−55*** %
same,"TG, percent change with respect to HFD-fed hamster group","dose 50 mg/kg p.o., 7 days",−46** %
same,increase of HDL/TC,[3],46%
same,lowering of Low density lipoproteins (LDL),[3],65%
same,lowering of glycerol (Gly),[3],43%
same,lowering of serum TG,[3],43%
same,lowering of total cholesterol (TC),[3],54%
same,"GLY, percent change with respect to HFD-fed hamster group","dose 100 mg/kg p.o., 7 days",−43*** %
same,"HDL/TC, percent change with respect to HFD-fed hamster group","dose 100 mg/kg p.o., 7 days",+46%
same,"LDL, percent change with respect to HFD-fed hamster group","dose 100 mg/kg p.o., 7 days",−65*** %
same,"TC, percent change with respect to HFD-fed hamster group","dose 100 mg/kg p.o., 7 days",−54*** %
same,"TG, percent change with respect to HFD-fed hamster group","dose 100 mg/kg p.o., 7 days",−43** %
same,increase of HDL/TC ratio,over the dose range 5 to 100 mg/kg body weight,up to 54%
same,reduction of total cholesterol (TC),"over the dose range 5 to 100 mg/kg, listed as compound of formula (1)",up to 55%
"CC[C@H](C)C(=O)O[C@H]1C[C@@H](C)C=C2C=C[C@H](C)[C@H](CC[C@@H]3C[C@@H](O)CC(=O)O3)[C@H]21 [Lovastatin, reference compound]",increase of HDL/TC,[1],12%
same,lowering of glycerol (Gly),[1],35%
same,lowering of serum TG,[1],29%
same,lowering of total cholesterol (TC),[1],9%
same,"GLY, percent change with respect to HFD-fed hamster group","dose 25 mg/kg p.o., 7 days",−35%
same,"HDL/TC, percent change with respect to HFD-fed hamster group","dose 25 mg/kg p.o., 7 days",+12%
same,"TC, percent change with respect to HFD-fed hamster group","dose 25 mg/kg p.o., 7 days",−9%
same,"TG, percent change with respect to HFD-fed hamster group","dose 25 mg/kg p.o., 7 days",−29%
"CC(C)OC(=O)C(C)(C)Oc1ccc(C(=O)c2ccc(Cl)cc2)cc1 [fenofibrate, reference compound]",increase of HDL-C/TC,dose 108 mg/kg body weight,10%
same,lowering of Gly,dose 108 mg/kg body weight,36%
same,lowering of TC,dose 108 mg/kg body weight,18%
same,lowering of TG,dose 108 mg/kg body weight,42%
